Experimental findings from patent US20090136470A1, “REGULATORY T CELLS AND METHODS OF MAKING AND USING SAME” (priority 2007, published 2009) are described below.

Experiment [1] concerns CD4^+CD25^− spleen T cells. Briefly: Th-17 differentiation of CD4 T cells stimulated with dendritic cells or spleen APCs plus TGF-β and IL-6 (intracellular IL-17 staining, IL-17 ELISA). The class given is cell-based, mouse. On the procedure:
For CD4^+CD25^− T cell isolation, spleens were removed, teased into cell-single suspensions and filtered through a 70 μm cell strainer (Fisher Scientific, USA). CD4^+CD25^−T cells were isolated by negative selection after incubation with a mix of specific biotin-conjugated mAbs (anti-CD8, CD11b, CD11ε, CD25, CD45R (B220), NK1.1, and TER119) at 1/200 dilution, and anti-biotin magnetic microbeads (25-40 μl per spleen) (Miltenyi Biotec, USA).
For dendritic cells isolation, spleen and MLN were chopped and digested by collagenase type D (Roche, USA) for 30 min at room temperature. Digested tissues were treated with 5 mM of EDTA for additional 5 min and mashed through a 70 μm cell strainer. Subsequently, CD11c^+ cells were enriched by positive selection using anti-CD11c microbeads according to the manufacturer's protocol (Miltenyi Biotec, USA). Enriched populations were stained with CD45-APC, CD 11c-PE, I-A^b-FITC and TCR β and sorted for TCRβ^−CD45^+CD11c^+I-Ab^+ by flow cytometry using a FACS-DIVA cell sorter (USA).
The culture medium used for dendritic cell-T cell cultures was Iscove's modified Dulbecco medium (IMDM) (Gibco, USA) supplemented with 10% heat-inactivated FCS, 2 mM L-glutamine, 100 U/ml penicillin, 100 μg/ml streptomycin, and 5 mM β-mercaptoethanol (all Sigma, USA). […] For dendritic cell-T cell cultures, 2×10^4 dendritic cells and 1×10^5 T cells were cultured in a volume of 200 μl (96-well plates). For irradiated APC-T cell cultures, 5×10^5 APCs and 1×10^5 T cells were cultured in a volume of 200 μl in 96-well plates (2×10^6 APCs and 0.5×10^6 T cells per well in 48-well plates). […] For the study shown in FIG. 4A, after sorting of naive CD4^+ cells (CD25^−CD44^lowCD62L^+), cells were washed twice in PBS+0.1% BSA, counted and labeled with 2 μM of CFSE (Carboxyfluorescein diacetate, succinimidyl ester) (Molecular Probes, USA) at a concentration of 5−10×10^6 cells per ml in PBS-0.1% BSA.
To block non-specific staining, the 2.4G2 anti-CD16/32 antibody was added.

For experiment [2], the system named is CD4^+T cells from small intestine lamina propria and spleen. Briefly: Oral Listeria monocytogenes infection (and naïve mice) treated with RA or LE540: IL-17^+ and Foxp3^+ CD4 T cells. The class given is in vivo, mouse. An excerpt: Listeria monocytogenes (strain WT LMOVA) was used. Mice were orally infected (gavage) with 5×10^8 CFU of L. monocytogenes. Mice received i.p. injections of vehicle, RA or LE540 on the same day and 2 days after infection. Mice were sacrificed 5 days post-infection for analysis.
Every second day, in a interval of two weeks, naïve mice received gavage of either vehicle, RA or LE540.
Liver lymphocytes were isolated using 37.5% isotonic Percoll (GE Healthcare, USA), as previously described [Y. Kinjo et al, Nat Immunol 7, 978 (2006)]. Intestinal lymphocytes were isolated and prepared as previously described [Aranda et al., J Immunol 158, 3464 (1997)]. Briefly, small and large intestines were removed and placed in chilled HBSS media containing 5% FCS. The intestines were carefully cleaned from the mesentery and flushed of fecal content. Intestines were opened longitudinally and then cut into 1 cm pieces. The intestinal tissue was transferred to a 250-ml Erlenmeyer flasks containing 25 ml of preheated HBSS complemented with 2% FCS and 1 mM DTT (Sigma, USA) and shaken at 200 rpm for 40 min at 37° C. The tissue suspension was passed through a stainless steel sieve into 50-ml conical tubes and the cells were pelleted by centrifugation at 1200 rpm for 10 min at 4° C. The cell pellet was resuspended in complete HBSS, layered over a discontinuous 40/70% Percoll gradient, and centrifuged at 2000 rpm for 30 min. Cells from the 40/70% interface were collected, washed and resuspended in complete RPMI media. These purified cells constituted the intraepithelial lymphocyte (IEL) population. To isolate the lamina propria lymphocytes (LPL), the remaining intestinal tissue in the stainless steel sieve was minced and transferred to conical tubes. The minced pieces were resuspended in 20 ml of complete RPMI containing 1 mg/ml of collagenase (Sigma, USA) and shaken at 200 rpm for 40 min at 37° C. The tissue suspension was collected and passed through a 70 μm cell strainer and the cells were pelleted by centrifugation at 1200 rpm. The cells were then resuspended and layered onto a 40/70% Percoll gradient, centrifugated and processed as described above for the IEL preparation.
To block non-specific staining, the 2.4G2 anti-CD16/32 antibody was added. […] For intracellular cytokine staining, cells obtained from in vitro cultures or isolated IELs were incubated for 4-5 hours with 50 ng/ml PMA, 750 ng/ml Ionomycin (both Sigma, USA) and 10 μg/ml Brefeldin A (Invitrogen, USA) in a tissue culture incubator at 37° C.
For Foxp3 staining, no stimulation with PMA/Ionomycin was performed, with the exceptions of FIGS. 8B and 9A. In these cases, the time of incubation with PMA/Ion was reduced to 3.5 hours. Intracellular Foxp3 staining was performed as per the eBioscience's Foxp3-staining kit protocol.

Take `CC1=C(/C=C/C(C)=C/C=C/C(C)=C/C(=O)O)C(C)(C)CCC1` [RA, All-trans retinoic acid]: in experiment [1] (TGF-β 5 ng/ml, varied concentrations of IL-6 and RA), the “antagonistic effect on IL-6 (Foxp3 versus IL-17)” value is “dose dependent”. In experiment [1] (TNF-α, IL-1-β, TGF-β and IL-6 plus RA), the “Foxp3 / Th-17 differentiation of CD4 T cells under conditions that promote Th-17 differentiation” value was “converted to Foxp3^+ cells with a decrease in Th-17 differentiation”. Moreover, the “Th-17 differentiation by spleen dendritic cells” value in experiment [1] (added to cultures with TGF-β and IL-6, 100 nM) is “inhibited the Th-17 differentiation by spleen dendritic cells”. The “Th-17 mucosal T cells (IL-17 staining of CD4^+T cells, small intestine lamina propria)” value in experiment [2] (5 days after oral L. monocytogenes infection, i.p. days 0 and 2, RA 300 μg/mouse, LE540 100 μg/mouse) is “measurable reduction”. Besides, the “differentiation / number of mucosal Foxp3^+Treg cells (small intestine lamina propria)” value in experiment [2] (Lm challenged mice, 5 days after oral infection) is given as “not found to measurably enhance”. Also, the “spleen Foxp3^+CD4 cells” value in experiment [2] (Lm infected mice (2 i.p. injections) and naïve mice (2-week gavage)) is listed as “No effect”.
